Nine molecules from patent publication US10246429B2, “Vinyl fluoride cyclopropyl fused thiazin-2-amine compounds as beta-secretase inhibitors and methods of use” (AMGEN INC., priority 2015, dated 2019) can be followed below.

Molecules are shown by their SMILES.

The term IC50 denotes the concentration that inhibits the measured activity by half.

One experiment has as its target BACE2 (Homo sapiens (Human), UniProt Q9Y5Z0). Kind of experiment: In vitro enzymatic BACE2 FRET assay. In kind it is biochemical. Conditions: read-out: IC50 IP (μM) BACE2 Enzyme.
The target of the next experiment is Cathepsin D (CatD) (Homo sapiens (Human), UniProt P07339). As to the kind of experiment: CatD assay. The note with it: read-out: IC50 IP (μM) CatD. In kind it is biochemical.
Chain of Cathepsin D (CatD) (P07339 65-412, species assumed): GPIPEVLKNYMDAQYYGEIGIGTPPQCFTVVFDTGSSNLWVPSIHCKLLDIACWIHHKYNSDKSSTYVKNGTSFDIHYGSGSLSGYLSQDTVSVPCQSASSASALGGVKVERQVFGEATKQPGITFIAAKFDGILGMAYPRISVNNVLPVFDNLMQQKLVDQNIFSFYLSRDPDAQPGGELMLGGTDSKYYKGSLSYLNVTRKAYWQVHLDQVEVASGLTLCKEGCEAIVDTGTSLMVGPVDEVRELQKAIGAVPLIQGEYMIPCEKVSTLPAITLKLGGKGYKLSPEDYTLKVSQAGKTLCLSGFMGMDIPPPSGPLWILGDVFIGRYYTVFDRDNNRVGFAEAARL

Chain of BACE2 (Q9Y5Z0 63-518): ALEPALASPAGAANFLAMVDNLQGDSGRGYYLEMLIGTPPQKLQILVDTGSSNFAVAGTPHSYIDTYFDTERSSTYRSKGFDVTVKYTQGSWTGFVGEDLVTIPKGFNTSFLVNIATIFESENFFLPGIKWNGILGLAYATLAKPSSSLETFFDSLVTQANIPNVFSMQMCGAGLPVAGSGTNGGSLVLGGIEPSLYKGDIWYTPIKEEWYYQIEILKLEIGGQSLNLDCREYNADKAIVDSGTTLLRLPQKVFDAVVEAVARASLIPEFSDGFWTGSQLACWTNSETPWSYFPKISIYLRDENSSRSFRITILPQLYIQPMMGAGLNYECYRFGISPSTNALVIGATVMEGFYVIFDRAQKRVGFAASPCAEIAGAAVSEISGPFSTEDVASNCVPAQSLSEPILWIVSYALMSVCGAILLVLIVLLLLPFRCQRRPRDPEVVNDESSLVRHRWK
Excerpt for BACE2: In Vitro Enzymatic BACE1 and BACE2 FRET (Fluorescence Resonance Energy Transfer) Assays (Enzyme Assay Data in Table 1)

Take `C[C@@]1(O)CCN(C(=O)[C@]23C[C@H]2[C@@](C)(c2cc(/C=C(\F)c4ccc(C#N)cn4)ccc2F)N=C(N)S3)C1` (single isomer, unassigned) [Example 310]: the IC50 turned out to be 0.041 µM at BACE2 and 434 µM on Cathepsin D (CatD).

`COC(=O)[C@]12C[C@H]1[C@@](C)(c1cc(/C=C(\F)c3ccc(Br)cn3)ccc1F)N=C(N)S2` [Example 105, (1S,5S,6S)-methyl 3-amino-5-(5-((Z)-2-(5-bromopyridin-2-yl)-2-fluorovinyl)-2-fluorophenyl)-5-methyl-2-thia-4-azabicyclo[4.1.0]hept-3-ene-1-carboxylate]: the figures for the IC50 at BACE2 and at Cathepsin D (CatD) were 0.127 µM and 302 µM, respectively.

`COC(=O)[C@]12C[C@H]1[C@@](C)(c1cc(/C=C(\F)c3ccc(Cl)cn3)ccc1F)N=C(N)S2` [Example 111, (1S,5S,6S)-methyl 3-amino-5-(5-((Z)-2-(5-chloropyridin-2-yl)-2-fluorovinyl)-2-fluorophenyl)-5-methyl-2-thia-4-azabicyclo[4.1.0]hept-3-ene-1-carboxylate]: the values for the IC50 at BACE2 and at Cathepsin D (CatD) were 0.102 µM and 734 µM, respectively.

Turning to `C[C@]1(c2cc(/C=C(\F)c3ccc(Cl)cn3)ccc2F)N=C(N)S[C@@]2(C(=O)N3CCC3)C[C@H]21` [Example 112, ((1S,5S,6S)-3-amino-5-(5-((Z)-2-(5-chloropyridin-2-yl)-2-fluorovinyl)-2-fluorophenyl)-5-methyl-2-thia-4-azabicyclo[4.1.0]hept-3-en-1-yl)(azetidin-1-yl)methanone], the IC50 on Cathepsin D (CatD) came to 97.6 µM.

As to `C[C@]1(c2cc(/C=C(\F)c3ccc(Cl)cn3)ccc2F)N=C(N)S[C@@]2(CO)C[C@H]21` [Example 113, ((1S,5S,6S)-3-amino-5-(5-((Z)-2-(5-chloropyridin-2-yl)-2-fluorovinyl)-2-fluorophenyl)-5-methyl-2-thia-4-azabicyclo[4.1.0]hept-3-en-1-yl)methanol], the IC50 on BACE2 turned out to be 0.0339 µM; at Cathepsin D (CatD) it was 400 µM.

In the case of `CC(O)CCNC(=O)[C@]12C[C@H]1[C@@](C)(c1cc(/C=C(\F)c3ccc(Cl)cn3)ccc1F)N=C(N)S2` (stereo partly drawn) [Example 115, (1S,5S,6S)-3-amino-5-(5-((Z)-2-(5-chloropyridin-2-yl)-2-fluorovinyl)-2-fluorophenyl)-N-(3-hydroxybutyl)-5-methyl-2-thia-4-azabicyclo[4.1.0]hept-3-ene-1-carboxamide], the IC50 on Cathepsin D (CatD) was 57.6 µM.

Consider `COC[C@@H]1CCCN1C(=O)[C@]12C[C@H]1[C@@](C)(c1cc(/C=C(\F)c3ccc(Cl)cn3)ccc1F)N=C(N)S2` [Example 117, ((1S,5S,6S)-3-amino-5-(5-((Z)-2-(5-chloropyridin-2-yl)-2-fluorovinyl)-2-fluorophenyl)-5-methyl-2-thia-4-azabicyclo[4.1.0]hept-3-en-1-yl)((S)-2-(methoxymethyl)pyrrolidin-1-yl)methanone], for which the IC50 was determined as 0.0209 µM on BACE2 and 166 µM on Cathepsin D (CatD).

On to `CNC(=O)[C@]12C[C@H]1[C@@](C)(c1cc(/C=C(\F)c3cnc(OCC(F)(F)C(F)F)cn3)ccc1F)N=C(N)S2` [Example 161, (1S,5S,6S)-3-amino-5-(2-fluoro-5-((Z)-2-fluoro-2-(5-(2,2,3,3-tetrafluoropropoxy)pyrazin-2-yl)vinyl)phenyl)-N,5-dimethyl-2-thia-4-azabicyclo[4.1.0]hept-3-ene-1-carboxamide], for which the IC50 on BACE2 came to 0.755 µM.

`C#Cc1cnc(/C(F)=C/c2ccc(F)c([C@@]3(C)N=C(N)S[C@@]4(C(=O)NC)C[C@H]43)c2)cn1` [Example 167, (1S,5S,6S)-3-amino-5-(5-((Z)-2-(5-ethynylpyrazin-2-yl)-2-fluorovinyl)-2-fluorophenyl)-N,5-dimethyl-2-thia-4-azabicyclo[4.1.0]hept-3-ene-1-carboxamide]: the half-maximal inhibitory concentration (IC50) on BACE2 worked out at 0.16 µM.
